The values that follow come from publication PMC4418665, “Cyclization of the Urokinase Receptor-Derived Ser-Arg-Ser-Arg-Tyr Peptide Generates a Potent Inhibitor of Trans-Endothelial Migration of Monocytes” (PLoS ONE, 2015).

Molecules are shown by their SMILES. Peptide text beside a SMILES is read from it.

For assay [1], the system named is PMA-differentiated THP-1 cells. The class given is cell-based, human. Conditions: 3 h. Here is the method:
(§1) The ability of [SRSRY] peptide to affect THP-1 cell migration was analyzed in Boyden chambers using 10 nM fMLF or 10 nM SRSRY as chemoattractants. […] Inhibitory effect of [SRSRY] is dose-dependent, it starts in the high fM range, it seems to level off in the μM range and reaches an overall 50% reduction at 10 pM (Fig 4B). […] The mechanisms by which monocytes move when subjected to a chemoattractant gradient, involve changes in cytoskeletal organization, which provide both protrusive and contractile forces necessary for cell migration. To gain some insights into the cellular effects exerted by peptide [SRSRY], PMA-differentiated THP-1 cells were grown adherent onto a glass slide, exposed to diluents (CTL), 10 nM fMLF gradient plus/minus 10 nM [SRSRY] or 10 nM [RSSYR] in a DUNN chamber for 6 hours as described, and then stained with rhodamine-phalloidin. A total of 100 cells/sample that translocated to the area corresponding to the ring separating the inner and outer chambers were counted and their cytoskeletal organization examined with a fluorescence-inverted microscope. […] Conversely, the addition of peptide [SRSRY] to the fMLF gradient reduced cell elongation and alignment with the appearance of F-actin linear distribution along the plasma membranes in the 60% of cell population (Fig 4C). In order to verify whether the inhibitory effect of [SRSRY] also occurs on primary monocytes and/or macrophages, human monocytes and macrophages were subjected to cell migration assays in Boyden and DUNN chambers, respectively. […] Unlike [RSSYR], 10 nM [SRSRY] reduced both fMLF- and SRSRY- directed monocyte migration by 50% and 49%, respectively. Next, primary macrophages were subjected to cell migration assay in DUNN chamber as above described. After 6 hours incubation, a total of 100 cells/sample that translocated to the area corresponding to the ring separating the inner and outer chambers were counted. Macrophage exposure to 10 nM fMLF elicited a considerable cell migration, reaching 230% of the basal cell migration (CTL), that was unchanged by 10 nM [[…]). […] These findings indicate that unlike linear SRSRY, the cyclic form of the chemotactic sequence of uPAR inhibits monocyte motility and prevents cytoskeletal re-organization occurring during migration of macrophages. {[…]] inhibits migration of monocytes and macrophages in a dose-dependent manner causing a marked inhibition of fMLF-dependent cytoskeletal re-organization. A. THP-1 cells (1x10^5 cells/well) were allowed to migrate for 90 minutes at 37°C, 5% CO2 in Boyden chambers toward 10 nM fMLF, or 10 nM SRSRY in the presence of diluents (None), 10 nM [RSSYR] or 10 nM [SRSRY]. […] Data are expressed as the means ± SD of three independent experiments, performed in duplicate. *Statistical significance against None with p<0.001. B. THP-1 and PMA-stimulated THP-1 cell migration toward 10 nM fMLF plus increasing concentrations of [SRSRY] in Boyden chambers. The extent of cell migration was expressed as a percentage of the net fMLF-dependent cell migration, considered as 100%. Data are expressed as the means ± SD of three independent experiments, performed in duplicate. C. Representative images of PMA-stimulated THP-1 cells allowed to migrate in a DUNN chamber toward diluents (CTL), or a fMLF chemotactic gradient, in the absence (None) or presence of 10 nM [SRSRY] or [RSSYR] peptides and stained with rhodamine-phalloidin. Scale bar: 10 μm. Original magnifications: 630x. D-E. Primary monocytes (1x10^5 cells/well) were allowed to migrate for 90 minutes at 37°C, 5% CO2 in Boyden chambers toward 10 nM fMLF (D), or 10 nM […]) in the presence of diluents (None), 10 nM [RSSYR] or 10 nM [SRSRY]. […] Data are expressed as the means ± SD of three independent experiments, performed in duplicate. *Statistical significance against None with p<0.001; **Statistical significance against None with p<0.0001. […]

In assay [2] the test system is THP-1 cells. The assay is classed as cell-based, human. The method, then: as §1
Where [3] appears, read: 10 nM peptide, 90 minutes, Boyden chamber.

In the case of `N=C(N)NCCC[C@@H]1NC(=O)[C@H](CO)NC(=O)[C@H](Cc2ccc(O)cc2)NC(=O)[C@H](CCCNC(=N)N)NC(=O)[C@H](CO)NC1=O` [[SRSRY], [Ser-Arg-Ser-Arg-Tyr]] (cyclo(RSRYS)), the half-inhibitory concentration (IC50) (in general, the midpoint of a concentration-inhibition curve) in assay [1] worked out at 10 pM. In assay [2] (setting [3]), the “reduction of THP-1 monocyte migration toward 10 nM SRSRY” value is 68% and the “reduction of THP-1 monocyte migration toward 10 nM fMLF” value is listed as 58%. The molecule also showed a half-maximal inhibitory concentration (IC50) in assay [2] (6 h) of 10 pM.
